39 compounds from ChEMBL document CHEMBL1177764, “Exploration of potential prodrug approach of the bis-thiazolium salts T3 and T4 for orally delivered antimalarials” (Bioorg Med Chem Lett, 2010) can be followed below.

Assay [1] deals with Plasmodium vinckei. The experiment in a line: Antimalarial activity against Plasmodium vinckei infected in intraperitoneally dosed mice (Mus musculus). It counts as functional. Particulars: ip.
In another assay the test system is Plasmodium falciparum. The experiment in a line: Antiplasmodial activity against Plasmodium falciparum. It counts as functional, organism-based.
For assay [2], the system named is Plasmodium vinckei. The experiment in a line: Antimalarial activity against Plasmodium vinckei infected in perorally dosed mice (Mus musculus). Particulars: po. The assay is classed as functional.

What is called ED50 is the midpoint of the dose-response relation. As usually defined, the IC50 is the concentration at which inhibition is half-maximal.

Consider `COCC/C(SC(=O)c1ccccc1)=C(\C)N(C=O)CCCCCCCCCCCCN(C=O)/C(C)=C(/CCOC)SC(=O)c1ccccc1`, for which the ED50 in the assay on Plasmodium vinckei [1] is below 0.5 mg/kg; in the assay with Plasmodium vinckei [2], 15 mg/kg. Besides, the 50% inhibitory concentration (IC50) in the assay with Plasmodium falciparum was 1.7 nM.

Consider `COCC/C(SC(=O)CCC(=O)OC)=C(\C)N(C=O)CCCCCCCCCCCCN(C=O)/C(C)=C(/CCOC)SC(=O)CCC(=O)OC`, for which the ED50 with Plasmodium vinckei [1] came out at 0.4 mg/kg; in the assay on Plasmodium vinckei [2], 10 mg/kg. The same compound returned an IC50 in the assay with Plasmodium falciparum of 5.9 nM.

Take `CCOC(=O)S/C(CCOC)=C(/C)N(C=O)CCCCCCCCCCCCN(C=O)/C(C)=C(/CCOC)SC(=O)OCC`: the ED50 in the assay on Plasmodium vinckei [1] came to 0.21 mg/kg; in the assay with Plasmodium vinckei [2] it was 6.3 mg/kg. In the assay with Plasmodium falciparum, the IC50 was found to be 2.9 nM.

As to `C/C=C/CC(=O)S/C(CCOC)=C(/C)N(C=O)CCCCCCCCCCCCN(C=O)/C(C)=C(/CCOC)SC(=O)C/C=C/C`, the IC50 with Plasmodium falciparum stood at 3.3 nM. This compound returned an ED50 in the assay on Plasmodium vinckei [2] of 16 mg/kg.

For the compound `COCC/C(SC(=O)N1CCCC1)=C(\C)N(C=O)CCCCCCCCCCCCN(C=O)/C(C)=C(/CCOC)SC(=O)N1CCCC1`, the ED50 was above 5 mg/kg in the assay with Plasmodium vinckei [1] and above 90 mg/kg in the assay with Plasmodium vinckei [2]. For the same compound, in the assay on Plasmodium falciparum, the IC50 was 310 nM.

As for `COCCc1sc[n+](CCCCCCCCCCCC[n+]2csc(CCOC)c2C)c1C.[Br-].[Br-]`, the ED50 in the assay with Plasmodium vinckei [1] was found to be 0.14 mg/kg; in the assay on Plasmodium vinckei [2] it was 8.1 mg/kg.

Turning to `COCC/C(SC(=O)C(C)C)=C(\C)N(C=O)CCCCCCCCCCCCN(C=O)/C(C)=C(/CCOC)SC(=O)C(C)C`, the ED50 stood at 0.12 mg/kg in the assay on Plasmodium vinckei [1] and 11 mg/kg in the assay on Plasmodium vinckei [2]. Besides, the IC50 in the assay with Plasmodium falciparum came out at 1.1 nM.

Take `COCC/C(SC(=O)c1ccccc1C)=C(\C)N(C=O)CCCCCCCCCCCCN(C=O)/C(C)=C(/CCOC)SC(=O)c1ccccc1C`: the ED50 in the assay on Plasmodium vinckei [1] stood at 0.25 mg/kg; in the assay on Plasmodium vinckei [2], 24 mg/kg. This compound also had an IC50 with Plasmodium falciparum of 110 nM.

As to `C/C(=C1\CCOC(=O)S1)N(C=O)CCCCCCCCCCCCN(C=O)/C(C)=C1/CCOC(=O)S1`, the ED50 with Plasmodium vinckei [1] stood at 0.25 mg/kg; with Plasmodium vinckei [2], 5 mg/kg. The compound also yielded an IC50 in the assay with Plasmodium falciparum of 2.2 nM.

Turning to `COCC/C(SC(=O)c1ccccc1C(F)(F)F)=C(\C)N(C=O)CCCCCCCCCCCCN(C=O)/C(C)=C(/CCOC)SC(=O)c1ccccc1C(F)(F)F`, the ED50 in the assay on Plasmodium vinckei [1] was above 2.5 mg/kg; with Plasmodium vinckei [2], above 90 mg/kg. Besides, the IC50 with Plasmodium falciparum worked out at 2200 nM.

Turning to `COCC/C(SC(=O)OC(C)Cl)=C(\C)N(C=O)CCCCCCCCCCCCN(C=O)/C(C)=C(/CCOC)SC(=O)OC(C)Cl` (centres undefined), the median effective dose (ED50) in the assay with Plasmodium vinckei [1] worked out at 0.11 mg/kg; in the assay on Plasmodium vinckei [2], 13 mg/kg. For the same compound, inhibition in the assay on Plasmodium falciparum was half-maximal at 10.6 nM (IC50).

`COCC/C(SC(=O)OCCBr)=C(\C)N(C=O)CCCCCCCCCCCCN(C=O)/C(C)=C(/CCOC)SC(=O)OCCBr` came in with an IC50 in the assay with Plasmodium falciparum of 2.7 nM. In addition, the ED50 in the assay on Plasmodium vinckei [2] is 13 mg/kg.

In turn, `COCC/C(SC(=O)Oc1ccc([N+](=O)[O-])cc1)=C(\C)N(C=O)CCCCCCCCCCCCN(C=O)/C(C)=C(/CCOC)SC(=O)Oc1ccc([N+](=O)[O-])cc1` showed an IC50 in the assay on Plasmodium falciparum of 3.1 nM. The compound further gave an ED50 in the assay on Plasmodium vinckei [2] above 30 mg/kg.

In the assay with Plasmodium falciparum, `COCC/C(SC(=O)C1CCC1)=C(\C)N(C=O)CCCCCCCCCCCCN(C=O)/C(C)=C(/CCOC)SC(=O)C1CCC1` returned an IC50 of 3.6 nM.

The compound `COCC/C(SC(C)=O)=C(\C)N(C=O)CCCCCCCCCCCCN(C=O)/C(C)=C(/CCOC)SC(C)=O` returned an IC50 in the assay with Plasmodium falciparum of 1.1 nM.

As for `C/C(=C(\CCOC(=O)C(C)C)SC(=O)C(C)C)N(C=O)CCCCCCCCCCCCN(C=O)/C(C)=C(/CCOC(=O)C(C)C)SC(=O)C(C)C`, the ED50 with Plasmodium vinckei [1] turned out to be 1.2 mg/kg; in the assay on Plasmodium vinckei [2] it was 60 mg/kg. In the assay on Plasmodium falciparum, this compound yielded an IC50 of 7 nM.

Consider `COCC/C(SC(=O)c1cccnc1)=C(\C)N(C=O)CCCCCCCCCCCCN(C=O)/C(C)=C(/CCOC)SC(=O)c1cccnc1`, for which the 50% inhibitory concentration (IC50) in the assay on Plasmodium falciparum is 2.1 nM. This compound also showed an ED50 with Plasmodium vinckei [2] below 30 mg/kg.

As to `COCC/C(SC(=O)N1CCCC1=O)=C(\C)N(C=O)CCCCCCCCCCCCN(C=O)/C(C)=C(/CCOC)SC(=O)N1CCCC1=O`, the values for the ED50 with Plasmodium vinckei [1] and in the assay with Plasmodium vinckei [2] were 0.9 mg/kg and 12 mg/kg, respectively. The same compound displayed an IC50 with Plasmodium falciparum of 29.5 nM.

Regarding `C/C(=C(\CCOC(=O)c1ccccc1C)SC(=O)c1ccccc1C)N(C=O)CCCCCCCCCCCCN(C=O)/C(C)=C(/CCOC(=O)c1ccccc1C)SC(=O)c1ccccc1C`, the ED50 in the assay on Plasmodium vinckei [1] was above 20 mg/kg; with Plasmodium vinckei [2], above 180 mg/kg. The same compound registered a 50% inhibitory concentration (IC50) with Plasmodium falciparum of 3500 nM.

`COCC/C(SC(=O)Cc1ccco1)=C(\C)N(C=O)CCCCCCCCCCCCN(C=O)/C(C)=C(/CCOC)SC(=O)Cc1ccco1` yielded an IC50 with Plasmodium falciparum of 1.6 nM. The compound further registered an ED50 in the assay with Plasmodium vinckei [2] of 14 mg/kg.

In the case of `COCC/C(SC(=O)CCC(C)=O)=C(\C)N(C=O)CCCCCCCCCCCCN(C=O)/C(C)=C(/CCOC)SC(=O)CCC(C)=O`, the median effective dose (ED50) amounted to 0.15 mg/kg in the assay on Plasmodium vinckei [1] and 3 mg/kg in the assay on Plasmodium vinckei [2]. Moreover, the IC50 in the assay on Plasmodium falciparum worked out at 1.6 nM.

`C/C(=C1\CCOC(=S)S1)N(C=O)CCCCCCCCCCCCN(C=O)/C(C)=C1/CCOC(=S)S1`: the half-maximal inhibitory concentration (IC50) in the assay on Plasmodium falciparum came out at 4400 nM. Also, in the assay on Plasmodium vinckei [2], the ED50 was above 30 mg/kg.

In turn, `CCCCOC(=O)S/C(CCOC)=C(/C)N(C=O)CCCCCCCCCCCCN(C=O)/C(C)=C(/CCOC)SC(=O)OCCCC` showed an IC50 in the assay on Plasmodium falciparum of 5.6 nM. In addition, in the assay with Plasmodium vinckei [2], it took a dose of 16 mg/kg to reach the 50% effect level (ED50).

With `COCC/C(SC(=O)C(C)(C)OC(C)=O)=C(\C)N(C=O)CCCCCCCCCCCCN(C=O)/C(C)=C(/CCOC)SC(=O)C(C)(C)OC(C)=O`, the ED50 came out at 60.3 mg/kg in the assay on Plasmodium vinckei [1] and 57 mg/kg with Plasmodium vinckei [2]. Besides, the IC50 in the assay with Plasmodium falciparum worked out at 15.6 nM.

The compound `COCC/C(SC(=O)CC(C)C)=C(\C)N(C=O)CCCCCCCCCCCCN(C=O)/C(C)=C(/CCOC)SC(=O)CC(C)C` showed an IC50 in the assay on Plasmodium falciparum of 2.4 nM. The ED50 in the assay with Plasmodium vinckei [2] is 16 mg/kg.

In the assay on Plasmodium falciparum, `COCC/C(SC(=O)C(C)(C)C)=C(\C)N(C=O)CCCCCCCCCCCCN(C=O)/C(C)=C(/CCOC)SC(=O)C(C)(C)C` showed an IC50 of 6.7 nM.

Consider `COCC/C(SC(=O)C1CCCC1)=C(\C)N(C=O)CCCCCCCCCCCCN(C=O)/C(C)=C(/CCOC)SC(=O)C1CCCC1`, for which the results for the ED50 in the assay on Plasmodium vinckei [1] and in the assay with Plasmodium vinckei [2] were 0.65 mg/kg and 17 mg/kg, respectively. Moreover, inhibition with Plasmodium falciparum was half-maximal at 8.2 nM (IC50).

Turning to `COCC/C(SC(=O)COC)=C(\C)N(C=O)CCCCCCCCCCCCN(C=O)/C(C)=C(/CCOC)SC(=O)COC`, the 50% effective dose (ED50) in the assay with Plasmodium vinckei [1] came to 1.9 mg/kg; in the assay with Plasmodium vinckei [2], 80 mg/kg. In the assay with Plasmodium falciparum, the IC50 came out at 2.3 nM.

As to `CCC(=O)S/C(CCOC)=C(/C)N(C=O)CCCCCCCCCCCCN(C=O)/C(C)=C(/CCOC)SC(=O)CC`, the ED50 in the assay with Plasmodium vinckei [1] is below 0.1 mg/kg; with Plasmodium vinckei [2] it was 12 mg/kg. The IC50 in the assay on Plasmodium falciparum was 4.3 nM.

As for `COCC/C(SC(=O)c1ccc(CN2CCOCC2)cc1)=C(\C)N(C=O)CCCCCCCCCCCCN(C=O)/C(C)=C(/CCOC)SC(=O)c1ccc(CN2CCOCC2)cc1`, the ED50 with Plasmodium vinckei [1] is 3.4 mg/kg; in the assay with Plasmodium vinckei [2], 90 mg/kg. Also, the IC50 with Plasmodium falciparum stood at 1.5 nM.

`COC(=O)CCC(=O)OCC/C(SC(=O)CCC(=O)OC)=C(\C)N(C=O)CCCCCCCCCCCCN(C=O)/C(C)=C(/CCOC(=O)CCC(=O)OC)SC(=O)CCC(=O)OC`: the ED50 in the assay on Plasmodium vinckei [1] is 0.5 mg/kg; with Plasmodium vinckei [2], 13 mg/kg. In the assay on Plasmodium falciparum, the IC50 came to 48 nM.

In the case of `Cc1c(CCO)sc[n+]1CCCCCCCCCCCC[n+]1csc(CCO)c1C.[Br-].[Br-]` [ALBITIAZOLIUM BROMIDE], the ED50 with Plasmodium vinckei [1] came to 0.2 mg/kg; in the assay with Plasmodium vinckei [2], 13 mg/kg.

For `COCC/C(SC(=O)OCCF)=C(\C)N(C=O)CCCCCCCCCCCCN(C=O)/C(C)=C(/CCOC)SC(=O)OCCF`, the ED50 in the assay on Plasmodium vinckei [1] came out at 0.1 mg/kg; with Plasmodium vinckei [2], 3.8 mg/kg. Moreover, in the assay with Plasmodium falciparum, inhibition was half-maximal at 2.2 nM (IC50).

As for `COCC/C(SC(=O)OC)=C(\C)N(C=O)CCCCCCCCCCCCN(C=O)/C(C)=C(/CCOC)SC(=O)OC`, the ED50 amounted to 0.072 mg/kg in the assay on Plasmodium vinckei [1] and 1.3 mg/kg with Plasmodium vinckei [2]. In the assay with Plasmodium falciparum, this compound gave an IC50 of 1.85 nM.

For `COc1ccc(C(=O)OCC/C(SC(=O)c2ccc(OC)c(OC)c2OC)=C(\C)N(C=O)CCCCCCCCCCCCN(C=O)/C(C)=C(/CCOC(=O)c2ccc(OC)c(OC)c2OC)SC(=O)c2ccc(OC)c(OC)c2OC)c(OC)c1OC`, the figures for the ED50 in the assay on Plasmodium vinckei [1] and in the assay with Plasmodium vinckei [2] were 1.8 mg/kg and above 60 mg/kg, respectively. This compound gave an IC50 in the assay on Plasmodium falciparum of 16.5 nM.

`COCC/C(SC(=O)C1CCCN1)=C(\C)N(C=O)CCCCCCCCCCCCN(C=O)/C(C)=C(/CCOC)SC(=O)C1CCCN1` (centres undefined) showed an IC50 in the assay on Plasmodium falciparum of 2.8 nM. The compound further returned a 50% effective dose (ED50) in the assay on Plasmodium vinckei [2] of 17 mg/kg.

In the assay on Plasmodium falciparum, `COCC/C(SC(=O)C1CC1)=C(\C)N(C=O)CCCCCCCCCCCCN(C=O)/C(C)=C(/CCOC)SC(=O)C1CC1` yielded an IC50 of 2 nM. Moreover, the ED50 with Plasmodium vinckei [2] was 16 mg/kg.

As to `COCC/C(SC(=O)Oc1ccccc1)=C(\C)N(C=O)CCCCCCCCCCCCN(C=O)/C(C)=C(/CCOC)SC(=O)Oc1ccccc1`, the values for the ED50 in the assay with Plasmodium vinckei [1] and with Plasmodium vinckei [2] were 0.3 mg/kg and 24 mg/kg, respectively. In the assay with Plasmodium falciparum, the IC50 is 3.5 nM.

Consider `COCC/C(SC(=O)OC(C)C)=C(\C)N(C=O)CCCCCCCCCCCCN(C=O)/C(C)=C(/CCOC)SC(=O)OC(C)C`, for which the values for the ED50 in the assay with Plasmodium vinckei [1] and with Plasmodium vinckei [2] were below 0.1 mg/kg and 6.8 mg/kg, respectively. Besides, in the assay with Plasmodium falciparum, half-maximal inhibition (IC50) was put at 6.2 nM.
